Measured values: publication PMC7996082, “The translocator protein ligands as mitochondrial functional modulators for the potential anti-Alzheimer agents” (Journal of Enzyme Inhibition and Medicinal Chemistry, 2021)
Like-named read-outs stand apart in the source and are kept apart here.

Experiments:
TSPO = conditions: cited from earlier work
[1] = system: HT-22 (mouse hippocampal cells) cells treated with Aβ; experiment: JC-1 assay: recovery of mitochondrial membrane potential (ΔΨm) after Aβ; format: cell-based; conditions: 5 μM compound, 5 μM Aβ, HT22 cells; 0% = Aβ-induced damaged condition, 100% = normal condition
Experimental: Thirty thousand HT-22 cells per well were seeded into a clear 96-well plate (FALCON) at 200 µL per well one day prior to assay. 750 mM of JC-1 (Stratagene) in DMSO stock solution was dissolved into phenol red-free Opti-MEM (GIBCO) medium to make final concentration of 7.5 mM JC-1 per well. Medium was removed from the plate, and 100 µL per well of JC-1 was added. The sample plates were incubated for 1 h and 15 min at 37 °C and washed twice with 100 µL per well of PBS. Subsequently, cells were treated with a 25 µL solution of each compound at 10 µM in Opti-MEM and incubated at 37 °C for 10 min followed by addition of a 25 µL of Aβ (American peptide, 1-42) solution at 10 µM. Fluorescence was measured at every one hour for three hours at ex/em 530 nm/580 nm (“red”) and ex/em 485 nm/530 nm (“green”) by using the Flexstation® 3 (Molecular Devices, USA) reader. The ratio of green to red fluorescence was calculated and normalised by taking the percent changes using vehicle control as 100%.
The selected 56 compounds were purchased and tested by in vitro cell-based assays. Four different cell-based assays (JC-1, MTT, ATP production, and cellular ROS assays) were carried out sequentially. First, the JC-1 assay was performed to screen all 56 compounds, VH001–VH056 (Supplementary Table S1). Since mitochondrial membrane depolarisation is one of the distinct signs of mPTP opening, the mitochondrial uptake of a fluorescent JC-1 dye (5,59,6,69-tetrachloro-1,19,3,39-tetraethylbenzimidazolocarbocyanine iodide) was measured to evaluate the effects of each compound on the mitochondrial membrane potential (ΔΨm). HT22 cells, a mouse hippocampal cell line, were treated with 5 µM of Aβ, incubated with each compound at the same concentration of 5 µM, and subsequently treated with JC-1. On the basis of changes in the red/green fluorescence intensity ratio between the cells treated with Aβ and control, the percent recovery of ΔΨm for each compound was calculated and normalised to the ΔΨm of healthy cells as 100%.
Compd Structure ∆Ψm at 5 Compd Structure ∆Ψm at 5 […]
a After the treatment of each compound (5 μM) and Aβ (5 μM) in HT22 cell, the increase of fluorescence ratio (green/red) was measured and normalized by taking the change of the ratio between 0% (Aβ-induced damaged condition) and 100% (normal condition in the absence of Aβ).

[2] = MTT assay: HT22 cell viability with compound alone; format: cell-based, mouse; conditions: mouse, HT22 cells; HT22 cell viability after 24 h of treatment with 5 μM compound, no Aβ
Experimental: (§1) To a clear 96-well plate (FALCON), the cultured HT-22 cells were seeded in a number of 5,000 per well 24 h prior to the assay. A solution of each test compound (5 µM, 25 µL) was added to each well. After 24 h of incubation at 37 °C, the cells were treated with a 10 µL of MTT solution (3–(4,5-dimethylthiazol-2-yl)-2,5-diphenyltetrazolium bromide, Sigma-Aldrich), incubated for 2 h at 37 °C, and were treated with 135 µL of MTT solubilising solution (10% Triton-X 100 in isopropanol with 0.1 M HCl) for 2 h at 37 °C. The % values of cell viability were determined by using the optical density (OD) values at 560 nm, and normalised by taking the vehicle control (5 µM of DMSO) as […].

[3] = system: HT22 cells treated with Aβ; experiment: Cellular ROS assay (DCFDA): inhibition of Aβ-induced ROS generation; format: cell-based, mouse; conditions: for inhibition at 5 µM: Mus musculus, HT-22, 5 μM compound; for ROS Inhibition (%): 5 μM compound
Experimental: Among 56 compounds, 23 compounds were selected and further tested for the luciferase-based ATP assay. […] Thus, we chose these two compounds and further evaluated their biological activity by measuring cell viability and reactive oxygen species (ROS) production. The effects on cell viability of each compound under Aβ-induced cytotoxicity were determined by measuring the metabolic activity of NAD(P)H-dependent cellular oxidoreductases using the 3–(4,5-dimethylthiazol-2-yl)-2,5-diphenyl-tetrazolium bromide (MTT) dye. To measure cellular ROS levels, we used a fluorescence indicator, 2′,7′-dichlorofluorescein diacetate (DCFDA), and calculated the percent inhibition of ROS generation by applying the same method used for MTT assays. Compound 7 inhibited Aβ-induced ROS generation (97% at 5 µM) almost to the level of the untreated control (Table 1). […] On the basis of the in vitro activity, we selected compound 7 as the best hit from the initial screening library.

HT22 cells = experiment: MTT assay: HT22 cell viability with compound alone; format: cell-based, mouse; conditions: HT22 cell viability after 24 h of treatment with 5 μM compound, no Aβ
Experimental: as §1

[4] = system: transgenic AD model mice (APPswe/PSEN1dE9); experiment: Y-maze spontaneous alternation test in transgenic AD model mice; format: in vivo, mouse; conditions: Tg APPswe/PSEN1dE9 mice, 30 mg/kg daily, 1 month, PO
[5] = system: transgenic AD model mice (APPswe/PSEN1dE9); experiment: Contextual fear conditioning test in transgenic AD model mice; format: in vivo, mouse; conditions: Tg AD model mice, 30 mg/kg daily, 1 month, PO; 30 mg/kg
Experimental: (§2) The acute AD mice model was prepared by administration of Aβ1-42 solution (10% DMSO/90% PBS) to male ICR mice (6 weeks old, 30 − 33 g) via intracerebroventricular (ICV) injection (Aβ1-42 dose: 500 pmol/mouse) as described previously. The wild type mice (B6C3F1) and double APP/PS1 transgenic mice (Tg AD mice model; APPswe/PSEN1dE9) were purchased from Jackson Laboratory (Bar Harbour, ME, USA). The Tg AD model mice were 11 months old at the beginning of the behaviour test, and were housed for 1 month in a room under controlled temperature and fed ad libitum. The behaviour tests were conducted during daytime in air-controlled and soundproof experiment room. The animal experiments were abided by the guidelines of the Institutional Animal Care and Use Committee of Korea Institute of Science and Technology.
To the Tg mice of the AD model (n = 7 per group), each test compound (30 mg/kg) was orally administrated daily for 1 month. […] Freezing response was measured by the fear conditioning system without application of CS or US.
In addition, we assessed recovery effects of compound 7 by performing contextual fear conditioning tests.[40] Healthy mice show higher number of total freezing, which is an index of fear learning and memory of rodents; therefore, the number of total freezing responses under fear-relevant stimuli was measured with the compound-treated Tg AD model mice. […]

[6] = system: acute AD model mice (Aβ1-42 ICV injected ICR mice); experiment: Y-maze spontaneous alternation test in acute AD model mice; format: in vivo, mouse; conditions: 30 mg/kg daily, 6 days, i.p.
Experimental: as §2
To the mice of the acute AD model (n = 7 per group), each test compound (test compound in 20% cyclodextrin, 30 mg/kg) was […] injected daily for 6 days. The Y-maze spontaneous alternation test was performed 1 day after the administration of each test compound. The Y maze was made of three equally spaced black plastic arms (40 L × 10 W × 12 H cm) positioned at an equal angle. Each mouse was placed at the end of one arm and allowed to move freely through the maze for 8 min, and the sequence of arm entries was recorded. The arm entry of the mouse was counted when the all four limbs were within an arm. A set of entries into all three arms is considered as a spontaneous alternation. The spontaneous alternation (%) was calculated by the following equation: Spontaneous alternation (%)=100x[number of alternations/(total number of arm entries – 2)]
We evaluated in vivo activity of 7 and 14 in an acute AD mouse model. The acute AD model mice were generated by the administration of Aβ1-42 peptide (500 pmol) according to the previously reported method, and each compound (30 mg/kg daily) was administered intraperitoneally for 6 days. Piracetam (30 mg/kg daily) was also administered in parallel for comparison. The Y-maze spontaneous alternation tests were performed to measure the recovery of learning and memory deficit in acute AD model mice[38]^,[39]. […] We believe that the treatment of 7 was beneficial for ameliorating Aβ-induced cognitive impairments.

Compound: CC(=O)N(Cc1ccccc1OC(C)C)c1ccc(Cl)cc1Oc1ccccc1 [Compound 3, N-(4-chloro-2-phenoxyphenyl)-N-(2-isopropoxybenzyl)acetamide]
- IC50 (TSPO; TSPO binding affinity ref 31): 0.92 nM

Compound: CCc1ccc(Nc2cc(C(=O)NCCc3cccc(C)c3)c3ccccc3n2)cc1 [VH029]
- Recovery of ΔΨm (%) [1]: 18%

Compound: CCCCCCN(CCCCCC)C(=O)Cc1c(-c2ccc(F)cc2)[nH]c2ccccc12 [Compound 1, 2–(2-(4-fluorophenyl)-1H-indol-3-yl)-N,N-dihexylacetamide]
- Ki (TSPO; TSPO binding affinity ref 29): 3.25 nM

Compound: COc1ccc(CNC(=O)c2cc(OCc3ccc(C)cc3)nc3ccccc23)c(OC)c1 [VH028]
- Recovery of ΔΨm (%) [1]: 51%

Compound: COc1ccc(CNC(=O)C(c2cccnc2)N(C(=O)c2csnn2)c2ccc(C(C)(C)C)cc2)cc1 (stereo not shown) [Compound 8]
- viability at 24 h, 5 µM [2]: 34%
- inhibition at 5 µM [3]: -10%

Compound: CCOc1ccc(-c2cc(C(=O)NCC(C)CN(CC)CC)c3ccccc3n2)cc1 (stereo not shown) [VH030]
- Recovery of ΔΨm (%) [1]: 60%

Compound: CCN1CCCC1CNC(=O)c1cc(Nc2ccc(C)c(C)c2)nc2ccccc12 (stereo not shown) [VH023]
- Recovery of ΔΨm (%) [1]: 62%

Compound: CCOc1ccc(-n2c(SC)nc3sc4c(c3c2=O)CCN(C(C)=O)C4)cc1 [Compound 10]
- MTT Viability (%) (HT22 cells): 87%
- ROS Inhibition (%) [3]: −177%

Compound: COc1ccc(OC)c(CN(C(C)=O)c2cc(F)ccc2Oc2ccccc2)c1 [Compound 4, N-(2,5-dimethoxybenzyl)-N-(5-fluoro-2-phenoxyphenyl)acetamide]
- IC50 (TSPO; TSPO binding affinity ref 31): 1.6 nM

Compound: CN1C(=O)CN=C(c2ccc(Cl)cc2)c2cc(Cl)ccc21 [Compound 5, 7-chloro-5–(4-chlorophenyl)-1-methyl-1,3-dihydro-2H-benzo[e][1,4]diazepin-2-one]
- Ki (TSPO; TSPO binding affinity ref 32): 1.02 nM

Compound: NC(=O)CN1CCCC1=O [Piracetam, piracetam, reference compound]
- Recovery of Y-maze spontaneous alternations [4]: 33%
- viability at 24 h, 5 µM [2]: 132%
- Contextual fear conditioning: percent recovery of freezing [5]: −2%
- Recovery of Y-maze spontaneous alternations [6]: 20%
- inhibition at 5 µM [3]: 129%

Compound: CCOc1ccc(-n2c(SCC(C)C)nc3sc4c(c3c2=O)CCN(C(C)=O)C4)cc1 [Compound 11]
- ROS Inhibition (%) [3]: −234%

Compound: CCOc1ccc(-c2cc(C(=O)NCCCN(CC)c3ccccc3)c3ccccc3n2)cc1 [VH024]
- Recovery of ΔΨm (%) [1]: 74%

Compound: CCCCN(CCCC)C(=O)Cc1c(-c2ccc(Cl)cc2)nc2c(Cl)cc(Cl)cn12 [Compound 2, N,N-dibutyl-2–(6,8-dichloro-2–(4-chloro-phenyl)imidazo[1,2-a]pyridin-3-yl)acetamide]
- Ki (TSPO; TSPO binding affinity ref 30): 2.68 nM

Compound: CC(C)CN(CCCNC(=O)c1cc(Nc2ccccc2)nc2ccccc12)CC(C)C [VH027]
- Recovery of ΔΨm (%) [1]: 25%
